According to article PMC9929129, “Towards Translation of PqsR Inverse Agonists: From In Vitro Efficacy Optimization to In Vivo Proof‐of‐Principle” (Advanced Science, 2023):

Columns and labels:
[1] = system: PA14 biofilm; test: eDNA release assay; assay type: cell-based; details: Pseudomonas aeruginosa; PA14, propidium iodine staining
Method: The eDNA release assay was performed as described previously[3] with slight modifications. The impact on eDNA was assessed by incubation of biofilm with propidium iodine solution (0.025 mg mL−1) for 3 h and detection of specific florescence at 620 nm after a thorough washing step with […]
1.2.7 P. aeruginosa clinical isolates from bronchiectasis patients – phenotypic characterization and inhibition of pyocyanin production
Clinical isolates. The P. aeruginosa strains had been isolated from respiratory secretions collected from patients with bronchiectasis seen at the bronchiectasis out-patient clinic of Hannover Medical School. The clinical isolates were genotyped by a custom-made multilocus microarray.[4] The hexadecimal SNP genotype was converted into the multilocus sequence genotype (MLST)[5] by comparison with the sequence of the seven selected housekeeping genes in genome sequences of the same clone deposited in our in-house[6] or the International Pseudomonas Genome Database.[7]

[2] = Metabolic stability in mouse liver microsomes (MLM)
Method: 1.3.2 Metabolic-Stability Tests in Mouse Liver Microsomes (MLM).
Phase I metabolic stability was evaluated by incubating the compound (1 μM) with 0.5 mg/mL MLM (Corning) and 1 mM NADPH at 37 °C for 0, 5, 10, 15 and 30 min. The enzymatic activity of the MLM was determined by measuring the metabolic stability of Verapamil, Diphenhydramine and Benzydamine (1 μM each).
The half-life (t1/2) was determined by analyzing the concentrations of the compounds at the different time points by HPLC-MS/MS.

[3] = target: T1, M2 (h) (Homo sapiens, UniProt P08172); test: Cerep panel binding assay; details: antagonist radioligand
T1 construct: Eurofins Pharma Discovery (CRO that ran the assay) SafetyScreen44 Panel (Cerep, ITEM P270)
T1 sequence (P08172 whole entry): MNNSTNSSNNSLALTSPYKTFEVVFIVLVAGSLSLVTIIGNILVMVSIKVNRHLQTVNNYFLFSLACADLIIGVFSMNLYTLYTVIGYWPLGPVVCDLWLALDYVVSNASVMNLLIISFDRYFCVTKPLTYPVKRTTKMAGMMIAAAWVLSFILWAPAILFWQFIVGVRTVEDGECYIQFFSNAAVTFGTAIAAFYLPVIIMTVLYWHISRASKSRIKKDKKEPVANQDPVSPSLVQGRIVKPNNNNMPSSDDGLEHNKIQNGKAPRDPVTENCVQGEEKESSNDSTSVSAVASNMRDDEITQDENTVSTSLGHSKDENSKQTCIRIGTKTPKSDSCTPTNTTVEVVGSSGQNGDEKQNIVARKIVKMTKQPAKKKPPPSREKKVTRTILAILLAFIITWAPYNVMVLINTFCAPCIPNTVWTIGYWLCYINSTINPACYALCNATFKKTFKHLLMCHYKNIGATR
Method: (§1) 1.4 Safety Pharmacology of Compound 24
(§2) 1.4.1 Cerep panel (Eurofins)
(§3) Compound 24 was further profiled for its off-target interactions against a panel of 44 targets. The
(§4) screening was done by Eurofins Pharma Discovery within the SafetyScreen44 Panel (Cerep, ITEM
(§5) P270). In all assays binding/functional inhibition was determined at 10 µM.
(§6) Table S6. […]

[4] = target: T2, H1 (h) (Homo sapiens, UniProt P35367); test: Cerep panel binding assay; details: antagonist radioligand
T2 construct: purchased Eurofins Pharma Discovery (Cerep) SafetyScreen44 Panel, ITEM P270
Method: as §1, §2, §3, §4, §5, §6

[5] = target: T3, CB2 (h) (Homo sapiens, UniProt P34972); test: Cerep panel binding assay; details: agonist radioligand
T3 construct: purchased Eurofins Pharma Discovery (Cerep) SafetyScreen44 Panel, ITEM P270
Method: as §1, §2, §3, §4, §5, §6

[6] = target: T4, M3 (h) (Homo sapiens, UniProt P20309); test: Cerep panel binding assay; details: antagonist radioligand
T4 construct: Eurofins Pharma Discovery (CRO that ran the assay) SafetyScreen44 Panel (Cerep, ITEM P270)
T4 sequence (P20309 whole entry): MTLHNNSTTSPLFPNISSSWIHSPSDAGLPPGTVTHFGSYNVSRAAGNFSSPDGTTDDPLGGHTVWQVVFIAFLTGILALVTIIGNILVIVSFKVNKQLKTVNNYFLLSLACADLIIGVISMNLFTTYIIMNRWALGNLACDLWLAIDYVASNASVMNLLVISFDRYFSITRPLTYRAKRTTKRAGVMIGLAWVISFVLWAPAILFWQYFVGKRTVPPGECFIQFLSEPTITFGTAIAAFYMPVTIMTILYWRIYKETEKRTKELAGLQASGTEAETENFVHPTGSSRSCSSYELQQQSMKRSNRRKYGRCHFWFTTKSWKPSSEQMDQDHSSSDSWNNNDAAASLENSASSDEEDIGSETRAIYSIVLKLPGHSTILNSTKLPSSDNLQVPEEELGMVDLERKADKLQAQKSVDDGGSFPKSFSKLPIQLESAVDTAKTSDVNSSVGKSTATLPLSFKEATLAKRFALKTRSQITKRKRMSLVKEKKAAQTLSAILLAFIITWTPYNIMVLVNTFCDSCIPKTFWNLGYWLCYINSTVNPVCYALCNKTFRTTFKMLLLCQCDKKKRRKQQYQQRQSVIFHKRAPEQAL
Method: as §1, §2, §3, §4, §5, §6

[7] = target: T5, dopamine transporter (h) (Homo sapiens, UniProt Q01959); test: Cerep panel binding assay; details: antagonist radioligand
T5 construct: purchased Eurofins Pharma Discovery (Cerep) SafetyScreen44 Panel, ITEM P270
Method: as §1, §2, §3, §4, §5, §6

[8] = system: BZD (central); test: Cerep panel binding assay; details: 10 µM, agonist radioligand
Method: as §1, §2, §3, §4, §5, §6

[9] = target: T6, D1 (h) (Homo sapiens, UniProt P21728); test: Cerep panel binding assay; details: antagonist radioligand
T6 construct: purchased Eurofins Pharma Discovery (Cerep) SafetyScreen44 Panel, ITEM P270
T6 sequence (P21728 whole entry): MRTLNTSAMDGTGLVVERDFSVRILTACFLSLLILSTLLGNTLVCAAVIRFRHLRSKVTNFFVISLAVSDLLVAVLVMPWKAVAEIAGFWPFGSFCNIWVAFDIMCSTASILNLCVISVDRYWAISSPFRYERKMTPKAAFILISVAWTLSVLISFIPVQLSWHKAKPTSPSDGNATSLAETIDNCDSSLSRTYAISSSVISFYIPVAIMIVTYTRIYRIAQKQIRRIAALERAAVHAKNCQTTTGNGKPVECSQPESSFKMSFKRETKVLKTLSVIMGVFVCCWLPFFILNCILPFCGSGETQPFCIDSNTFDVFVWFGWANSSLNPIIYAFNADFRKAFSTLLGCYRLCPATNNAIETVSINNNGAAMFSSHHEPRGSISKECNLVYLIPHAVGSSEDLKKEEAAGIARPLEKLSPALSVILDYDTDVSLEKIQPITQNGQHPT
Method: as §1, §2, §3, §4, §5, §6

[10] = target: T7, ETA (h) (Homo sapiens, UniProt P25101); test: Cerep panel binding assay; details: agonist radioligand
T7 construct: Eurofins Pharma Discovery (CRO that ran the assay) SafetyScreen44 Panel (Cerep, ITEM P270)
Method: as §1, §2, §3, §4, §5, §6

[11] = target: T8, 5-HT3 (h) (Homo sapiens, UniProt P46098); test: Cerep panel binding assay; details: antagonist radioligand
T8 construct: purchased Eurofins Pharma Discovery (Cerep) SafetyScreen44 Panel, ITEM P270
Method: as §1, §2, §3, §4, §5, §6

[12] = target: T9, M1 (h) (Homo sapiens, UniProt P11229); test: Cerep panel binding assay; details: antagonist radioligand
T9 construct: Eurofins Pharma Discovery (CRO that ran the assay) SafetyScreen44 Panel (Cerep, ITEM P270)
T9 sequence (P11229 whole entry): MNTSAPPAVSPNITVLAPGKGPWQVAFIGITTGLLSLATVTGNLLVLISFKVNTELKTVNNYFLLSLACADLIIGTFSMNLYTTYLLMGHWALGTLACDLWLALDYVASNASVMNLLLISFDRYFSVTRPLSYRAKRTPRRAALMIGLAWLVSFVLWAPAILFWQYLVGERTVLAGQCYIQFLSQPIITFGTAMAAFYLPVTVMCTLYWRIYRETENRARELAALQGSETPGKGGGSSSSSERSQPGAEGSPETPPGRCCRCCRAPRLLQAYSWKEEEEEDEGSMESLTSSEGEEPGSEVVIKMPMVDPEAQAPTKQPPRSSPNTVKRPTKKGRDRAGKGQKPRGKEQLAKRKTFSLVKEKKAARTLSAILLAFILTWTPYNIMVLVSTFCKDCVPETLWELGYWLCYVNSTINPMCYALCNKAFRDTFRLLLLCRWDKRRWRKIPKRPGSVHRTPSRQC
Method: as §1, §2, §3, §4, §5, §6

[13] = target: T10, AR (h) (Homo sapiens, UniProt P10275, T878A); test: Cerep panel binding assay; details: agonist radioligand
T10 construct: purchased Eurofins Pharma Discovery (Cerep) SafetyScreen44 Panel, ITEM P270
Method: as §1, §2, §3, §4, §5, §6

[14] = target: T11, mu (MOP) (h) (Homo sapiens, UniProt P35372); test: Cerep panel binding assay; details: agonist radioligand
T11 construct: purchased Eurofins Pharma Discovery (Cerep) SafetyScreen44 Panel, ITEM P270
T11 sequence (P35372 whole entry): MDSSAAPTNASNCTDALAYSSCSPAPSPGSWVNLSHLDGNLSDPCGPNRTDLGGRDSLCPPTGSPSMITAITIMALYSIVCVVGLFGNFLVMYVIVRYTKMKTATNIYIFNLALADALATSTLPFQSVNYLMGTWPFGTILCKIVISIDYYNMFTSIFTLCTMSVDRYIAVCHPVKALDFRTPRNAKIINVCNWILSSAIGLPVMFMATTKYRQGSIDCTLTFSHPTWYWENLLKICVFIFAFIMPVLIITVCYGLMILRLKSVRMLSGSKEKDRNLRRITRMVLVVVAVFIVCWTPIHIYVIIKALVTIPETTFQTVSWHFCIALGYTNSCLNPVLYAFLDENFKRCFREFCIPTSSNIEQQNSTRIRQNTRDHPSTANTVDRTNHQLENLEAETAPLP
Method: as §1, §2, §3, §4, §5, §6

[15] = target: T12, kappa (h) (KOP) (Homo sapiens, UniProt P41145); test: Cerep panel binding assay; details: agonist radioligand
T12 construct: purchased Eurofins Pharma Discovery (Cerep) SafetyScreen44 Panel, ITEM P270
T12 sequence (P41145 whole entry): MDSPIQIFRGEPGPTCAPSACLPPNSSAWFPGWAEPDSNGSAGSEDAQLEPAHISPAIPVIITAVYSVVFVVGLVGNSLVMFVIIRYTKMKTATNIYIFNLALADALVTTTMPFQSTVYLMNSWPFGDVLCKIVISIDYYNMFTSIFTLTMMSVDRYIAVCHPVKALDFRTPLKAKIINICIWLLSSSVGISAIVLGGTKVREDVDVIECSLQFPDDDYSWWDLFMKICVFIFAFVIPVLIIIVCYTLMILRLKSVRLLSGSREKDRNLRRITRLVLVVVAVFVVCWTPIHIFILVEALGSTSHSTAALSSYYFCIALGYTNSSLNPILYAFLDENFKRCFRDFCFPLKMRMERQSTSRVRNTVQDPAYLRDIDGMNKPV
Method: as §1, §2, §3, §4, §5, §6

[16] = target: T13, IK (KCa3.1) calcium-activated potassium channel (Homo sapiens, UniProt O15554); test: Ion channel profiling at Charles River: IK; assay type: cell-based; details: expressed in CHO cells; read-out: ESTIMATED IC50
T13 construct: host or cells: CHO cells
Method: (§7) 1.4.3 Ion Channel Profiling at Charles River
(§8) Table S9. Compound 24 was tested against the following ion channels at Charles River Laboratories. […]
(§9) FASTPatch Assay IK (KCa3.1) calcium-activated potassium channel (human KCNN4 >30 gene) expressed in CHO cells […]
(§10) FLIPR Assay expressed in HEK293 cells
(§11) GABAA α5/β3/γ2 ionotropic receptor (human GABRA5, GABRB3, >30 and GABRG2 genes, expressed in HEK293 cells

[17] = target: T14, V1a (h) (Homo sapiens, UniProt P37288); test: Cerep panel binding assay; details: agonist radioligand
T14 construct: purchased Eurofins Pharma Discovery (Cerep) SafetyScreen44 Panel, ITEM P270
T14 sequence (P37288 whole entry): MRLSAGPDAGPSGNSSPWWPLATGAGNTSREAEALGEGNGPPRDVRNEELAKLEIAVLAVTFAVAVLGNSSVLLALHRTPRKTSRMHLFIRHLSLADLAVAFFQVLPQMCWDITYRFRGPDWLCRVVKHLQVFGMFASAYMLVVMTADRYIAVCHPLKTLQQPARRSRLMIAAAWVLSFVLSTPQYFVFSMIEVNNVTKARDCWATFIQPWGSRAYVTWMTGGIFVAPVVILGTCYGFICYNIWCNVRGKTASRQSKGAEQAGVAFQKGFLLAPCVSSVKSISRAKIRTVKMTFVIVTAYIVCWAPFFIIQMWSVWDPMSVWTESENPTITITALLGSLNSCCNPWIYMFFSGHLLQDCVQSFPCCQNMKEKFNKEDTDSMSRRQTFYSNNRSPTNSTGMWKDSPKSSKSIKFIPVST
Method: as §1, §2, §3, §4, §5, §6
V1a (h) (agonist radioligand) 7.6

[18] = target: T15, GABAA α5/β3/γ2 ionotropic receptor (Homo sapiens, UniProt P18507+P28472+P31644); test: Ion channel profiling at Charles River: GABAA; assay type: cell-based
T15 construct: host or cells: HEK293 cells
T15 sequence (P31644 32-462): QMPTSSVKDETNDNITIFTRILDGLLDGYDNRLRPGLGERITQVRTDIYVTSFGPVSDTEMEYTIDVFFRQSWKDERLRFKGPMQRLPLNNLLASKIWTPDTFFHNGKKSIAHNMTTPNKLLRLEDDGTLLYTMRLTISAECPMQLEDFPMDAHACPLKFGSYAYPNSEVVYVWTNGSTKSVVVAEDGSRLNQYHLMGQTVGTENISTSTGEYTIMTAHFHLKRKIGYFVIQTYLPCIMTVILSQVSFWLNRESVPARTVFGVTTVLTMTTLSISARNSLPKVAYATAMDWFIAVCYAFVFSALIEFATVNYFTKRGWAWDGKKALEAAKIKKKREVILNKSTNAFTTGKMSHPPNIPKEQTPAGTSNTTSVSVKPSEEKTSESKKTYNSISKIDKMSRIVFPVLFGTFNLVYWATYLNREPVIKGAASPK
T15 sequence (P28472 26-473): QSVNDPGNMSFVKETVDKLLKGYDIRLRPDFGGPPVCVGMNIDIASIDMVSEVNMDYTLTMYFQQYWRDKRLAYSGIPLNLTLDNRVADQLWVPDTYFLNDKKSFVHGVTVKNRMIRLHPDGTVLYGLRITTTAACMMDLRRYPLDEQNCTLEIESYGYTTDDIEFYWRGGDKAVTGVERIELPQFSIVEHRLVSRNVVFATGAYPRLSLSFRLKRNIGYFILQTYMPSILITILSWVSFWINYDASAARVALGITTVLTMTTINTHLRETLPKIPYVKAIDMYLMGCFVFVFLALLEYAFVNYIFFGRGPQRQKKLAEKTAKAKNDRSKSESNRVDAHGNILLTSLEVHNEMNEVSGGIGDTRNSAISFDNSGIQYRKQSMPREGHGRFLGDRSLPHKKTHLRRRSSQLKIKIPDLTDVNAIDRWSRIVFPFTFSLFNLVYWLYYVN
T15 sequence (P18507 40-475): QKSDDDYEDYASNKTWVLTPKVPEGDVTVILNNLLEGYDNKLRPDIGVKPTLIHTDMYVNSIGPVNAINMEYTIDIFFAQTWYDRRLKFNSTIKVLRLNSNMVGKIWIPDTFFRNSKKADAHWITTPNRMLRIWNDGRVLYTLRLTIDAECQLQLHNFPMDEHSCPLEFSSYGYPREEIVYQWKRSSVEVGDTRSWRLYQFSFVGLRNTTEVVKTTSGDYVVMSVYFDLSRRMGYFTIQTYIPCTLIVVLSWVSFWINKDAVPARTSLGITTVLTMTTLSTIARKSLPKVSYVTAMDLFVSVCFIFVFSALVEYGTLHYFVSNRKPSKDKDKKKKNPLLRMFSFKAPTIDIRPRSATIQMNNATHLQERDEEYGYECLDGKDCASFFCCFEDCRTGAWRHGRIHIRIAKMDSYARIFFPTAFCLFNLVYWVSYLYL
Method: as §7, §8, §9
(§12) ScreenPatch Assay Kv1.3 potassium channel (human KCNA3 gene) expressed in CHO […]
as §10, §11

[19] = target: T16, TRPA1 channel (Homo sapiens, UniProt O75762); test: Ion channel profiling at Charles River: TRPA1; assay type: cell-based; details: expressed in CHO cells; read-out: ESTIMATED IC50
T16 construct: host or cells: CHO cells
Method: as §7, §8, §12, §10
GABAA α5/β3/γ2 ionotropic receptor (human GABRA5, GABRB3, >30 and GABRG2 genes, expressed in HEK293 cells […]
TRPA1 channel (human TRPA1 gene) expressed in CHO cells >30 […]
An increase in the number of colonies of at least two-fold over baseline (mean + SD of the vehicle control) and a dose response indicate a positive response. An […]
different from the vehicle control.
Where indicated, S9 fraction from the livers of Aroclor 1254-treated rats were included in the incubation at a final concentration of 4.5%. A NADPH-regenerating system was also included to ensure a steady supply of reducing equivalents.

[20] = target: T17, HTR2B Human 5-Hydroxytryptamine GPCR (Homo sapiens, UniProt P41595); test: HTR2B GPCR calcium assay, 86-0030P-2091AN; assay type: cell-based
T17 construct: 86-0030P-2091AN
T17 sequence (P41595 whole entry): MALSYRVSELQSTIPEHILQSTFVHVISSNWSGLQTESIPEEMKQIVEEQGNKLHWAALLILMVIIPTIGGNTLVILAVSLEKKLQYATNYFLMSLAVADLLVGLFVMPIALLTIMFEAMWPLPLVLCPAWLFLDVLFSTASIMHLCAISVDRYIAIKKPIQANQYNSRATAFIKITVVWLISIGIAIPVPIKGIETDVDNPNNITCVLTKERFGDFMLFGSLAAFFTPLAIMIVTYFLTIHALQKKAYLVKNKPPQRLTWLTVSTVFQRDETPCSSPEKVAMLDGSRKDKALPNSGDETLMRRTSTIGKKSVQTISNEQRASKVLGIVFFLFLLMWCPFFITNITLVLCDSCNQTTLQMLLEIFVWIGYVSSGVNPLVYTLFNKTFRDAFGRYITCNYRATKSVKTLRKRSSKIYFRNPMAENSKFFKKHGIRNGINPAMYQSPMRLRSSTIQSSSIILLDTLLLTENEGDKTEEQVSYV
Source text: 1.4.2 Further functional off-target assays (Eurofins)
Table S8. Compound 24 was further tested in the following functional assays at Eurofins.
ASSAY NAME ESTIMATED IC50 [µM] […]
as §10
GABAA α5/β3/γ2 ionotropic receptor (human GABRA5, GABRB3, >30
and GABRG2 genes, expressed in HEK293 cells

[21] = In vivo PK study, IP, SC and PO; details: male, CD-1, mouse, plasma, 20 mg/kg
Method: For pharmacokinetic experiments via the intraperitoneally (IP), subcutaneously (SC) and perorally
(PO) route 4 weeks old outbred male CD-1 mice (Charles River, Netherlands) were used.
were administered 24 at 20 mg/kg intraperitoneally (IP), subcutaneously (SC) and perorally (PO).
About 20 μL of whole blood was collected serially from the lateral tail vein at time points t = 0.25
(only IP and SC), 0.5, 1, 2, 4, and 8 h post administration.
was collected from the heart. Whole blood was collected into Eppendorf tubes coated with 0.5 M EDTA and immediately spun down at 13,000 rpm for 10 min at 4 °C. The plasma was transferred into
a new Eppendorf tube and then stored at −80 °C until analysis.

SMILES: CC(C)Oc1ccc(-c2ncc(CNc3ccnc(C(F)(F)F)c3)cn2)cc1Cl [Compound 24]
- IC50 [1]: 0.346 µM
- half-life at 1 μM [2]: 0.317 h
- inhibition at 10 µM [3]: 0%
- inhibition at 10 µM [4]: 8.2%
- inhibition at 10 µM [5]: 31%
- inhibition at 10 µM [6]: -2%
- inhibition at 10 µM [7]: 22.7%
- BINDING (%) [8]: –27.1%
- inhibition at 10 µM [9]: 12.2%
- inhibition at 10 µM [10]: -0.3%
- inhibition at 10 µM [11]: 4.4%
- inhibition at 10 µM [12]: -5.9%
- inhibition at 10 µM [13]: 12.7%
- inhibition at 10 µM [14]: 8.2%
- inhibition at 10 µM [15]: 23.6%
- IC50 [16]: > 30 µM
- inhibition at 10 µM [17]: 7.6%
- IC50 [18]: > 30 µM
- IC50 [19]: > 30 µM
- IC50 [20]: > 10 µM
- bioavailability ([21]; intraperitoneal): ~36%
- AUC(0-t) ([21]; ip): 557 µg·h/mL
- CL/F ([21]; ip): 1.7 ± 1.8 mL/min/kg
- Cmax ([21]; ip): 65.8 µg/mL
- Tmax ([21]; ip): 1 h
- Vd/F ([21]; ip): 0.25 ± 0.3 L/kg
- bioavailability ([21]; ip): 36.1%
- half-life ([21]; ip): 1.68 h
- CL/F ([21]; po): 1.58 ± 0.4 mL/min/kg
- Cmax ([21]; po): 45.6 µg/mL
- Tmax ([21]; po): 0.83 ± 0.2 h
- Vd/F ([21]; po): 0.25 L/kg
- bioavailability ([21]; po): 13.8%
- half-life ([21]; po): 1.9 ± 0.5 h
- AUC(0-t) ([21]; sc): 363 µg·h/mL
- CL/F ([21]; sc): 0.93 ± 0.1 mL/min/kg
- Tmax ([21]; sc): 2 h
- Vd/F ([21]; sc): 0.12 L/kg
- bioavailability ([21]; sc): 23.5%
- half-life ([21]; sc): 1.51 h
